The values that follow come from patent US20240409864A1, “Apparatus and Methods for Generating and Analyzing Three-Dimensional Cellular Materials” (Agilent Technologies, Inc., priority 2021, published 2024).

One test has as its system HepG2 spheroids. As to the kind of experiment: Mitochondrial stress test, oxygen consumption rate (Seahorse XF). The test is classed as cell-based. To be noted: HepG2 spheroids assayed after 6 days, 50 microliters Lipidure coating.
Test [1] deals with Panc1 spheroids. The description is as above. The test is classed as cell-based. The conditions noted are these: Panc1 spheroids assayed after 8 days; polished plate, 20 microliters Lipidure coating; FIG. 15.
Source text: (§3) A common test performed on the system described above is a mitochondrial stress test. In this assay a series of injections are delivered through the drug ports of the cartridge in order to measure the response of the biological sample to various compounds (oligomycin, FCCP, rotenone and antimycin). These compounds are preloaded into a drug reservoir (port) on the XF cartridge prior to execution of the assay. When the cartridge is inserted into the instrument it is coupled to a manifold which when activated by a solenoid valve, provides pneumatic pressure to the head space of the reservoir forcing the compound through a small orifice and into the well containing the biological sample.
First, Panc1/HepG2 cells were grown in the well plates generally contemplated by the present disclosure but with only a single concentric lip as well as commercially available plates, followed by the transfer of the spheroids cultured in the commercially available plates to the plates of the present disclosure. The experimental protocol was as follows: • 1. Add 50 ul of Lipidure solution (prepared in ETOH) to the plates. Leave overnight at 37 degrees C. or at 50 degrees C. for 1 hour for the ETOH to evaporate. • 2. Trypsinize the HepG2 with multiple washes of Mg—Ca free PBS to make single cells. Leave in incubator at 37 deg C. for 2-3 mins. • 3. […]
Test [2] has as its system Panc1 spheroids. To be noted: Panc1 spheroids about 325 and 250 micrometers, final concentration 1 μM, BioFLOAT coating, no centrifugation. The text has this: (§1) Panc1, HepG2, and C2C12 cell lines were used to form spheroids in an apparatus with wells having the geometry shown at least in FIGS. 2, 3, and 4 of the present disclosure. The wells were coated with either Lipidure® or BioFLOAT® ultra low adhesion coatings according to manufacturer protocols, after which the cell lines were introduced to the well plates and spheroids were formed according to the following protocol: • Apply ULA coatings according to manufacturer's protocols • Use trypsin to detach cells of interest (C2C12, Panc1, or HepG2) and create a single cell suspension • Deactivate trypsin via addition of complete culture media • Perform a cell count • Centrifuge the cell suspension at 250 G for 5 minutes and resuspend the pellet in fresh medium at the required density. • Add 300-1500 cells per well with fresh growth medium to a final volume of 200 ul per well • Centrifuge, if necessary, at 250 G for 5 minutes with low deceleration. Centrifugation helps the cells to come together, if needed. • When desirable tight clusters are formed (typically 3-5 days), proceed with the Seahorse XF assay. • DMEM PH 7.4 media from Seahorse supplemented with glutamine, sodium pyruvate and glucose were used (same concentration as the growth medium). • With a multiple channel, pull out about 100 microliters of spent medium and add 100 microliters of fresh Seahorse medium slowly sliding through the walls. • Follow with 3-5 washes to dilute out the old media from the wells. • Perform desired Seahorse assay-Basal, Mito Stress Test, FCCP addition, or others.
(§2) Next, C2C12 and Panc1 cells were seeded in BioFLOAT® coated spheroid plates as contemplated by the present disclosure at two different concentrations. The cells were allowed to settle without centrifugation and form spheroids for two days. […] The largest cross-sectional diameter was measured to characterize the size of the spheroids.

The next test relates to C2C12 spheroids. The conditions noted are these: C2C12 spheroids about 180 and 140 micrometers, final concentration 1 μM, BioFLOAT coating, no centrifugation.
Source text: as §1, §2

Source text for HepG2 spheroids: as §3
The experimental protocol was as follows: • 1. Add 50 ul of Lipidure solution (prepared in ETOH) to the plates. Leave overnight at 37 degrees C. or at 50 degrees C. for 1 hour for the ETOH to evaporate. • 2. Trypsinize the HepG2 with multiple washes of Mg—Ca free PBS to make single cells. Leave in incubator at 37 deg C. for 2-3 mins. • 3. Transfer cells to centrifugal tube and add PBS to fill half the tube then count cells based on density prior to centrifugation. • 4. Centrifuge the cell suspension and resuspend the pellet in fresh medium. • 5. Add 10K cells per well with fresh growth medium (180 ul per well) • 6. Centrifuge, if necessary, at 1000 rpm for 2-3 minutes with low deceleration. Centrifugation helps the cells to come together, if needed. • 7. When desirable tight clusters are formed (3-5 days), proceed with the Seahorse XF assay. • 8. For HepG2, DMEM PH 7.4 media from Seahorse supplemented with glutamine, sodium pyruvate and glucose were used (same concentration as the growth medium). • 9. With a multiple channel, pull out about 150 microliters of spent medium and add 180 microliters of fresh Seahorse medium slowly sliding through the walls. • 10. Follow with 2-3 washes to dilute out the FBS from the wells. • 11. After every wash check if the spheroid is still in the center. The white spot of the spheroid is easily seen on dark lab counter tops. • 12. Follow known protocol for traditional oxygen consumption rate (OCR) assay based on the mitochondrial stress test described in detail above. • 13. Take before and after images to verify the spheroids remain centered throughout. • 14.
Further, and referring to FIGS. 16 and 17, the oxygen consumption rate was performed on wells 1-6 using the mitochondrial stress test described above using HepG2 spheroids generated and assayed after 6 days in a plate with the geometric configuration of the present disclosure.

As for FCCP, the “oxygen consumption rate response” value was “good response” in the test with HepG2 spheroids (polished plate, FIG. 19); “good response” in the test with HepG2 spheroids (unpolished plate, FIG. 17); “good response” in the test with Panc1 spheroids [1]. Further, the “oxygen consumption rate (OCR) after injection” value with Panc1 spheroids [2] (FIG. 42) and in the test with C2C12 spheroids (FIG. 44) was “increased” throughout. The “extra cellular acidification rate (ECAR) after injection” value in the test with Panc1 spheroids [2] (FIG. 43) and with C2C12 spheroids (FIG. 45) was “increased” each time.

Turning to `CC[C@H]1/C=C/C=C/C[C@@H](C)[C@H](O)[C@@](C)(O)C(=O)[C@@H](C)[C@H](O)[C@@H](C)C(=O)[C@@H](C)[C@H](O)[C@@H](C)/C=C/C(=O)O[C@@H]2[C@H](C)[C@H](CC1)O[C@]1(CC[C@H](C)[C@H](C[C@@H](C)O)O1)[C@H]2C` [oligomycin], the “oxygen consumption rate response” value with HepG2 spheroids (polished plate, FIG. 19) is given as “good response”; in the test on HepG2 spheroids (unpolished plate, FIG. 17), “good response”; with Panc1 spheroids [1], “did not show the dip on oxygen consumption”.
